# From PubChem BioAssay AID248 (DTP/NCI, 2004)
# “And” between values parts separate entries of the source, which are not always exact repeats. Identical values can stand only once. Toxic doses and inconclusive results are not listed.
# System: L1210 leukemia ip in BDF1 mice, survival T/C
# Assay: NCI In Vivo Anticancer Drug Screen. Data for tumor model L1210 Leukemia (intraperitoneal) in B6D2F1 (BDF1) mice
# Details: endpoint: mean survival time, higher = longer survival
# In short: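 Value reflects the ratio of survival in compound-treated mice to survival in vehicle-treated controls, with both groups carrying the same transplanted tumor.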
# [1] = dose: 100.0 mg/kg/injection, schedule: Q01DX009 (ip), vehicle: Klucel (hydroxypropylcellulose) (HPC)
# [2] = dose: 200.0 mg/kg/injection, schedule: Q01DX009 (ip), vehicle: Klucel (hydroxypropylcellulose) (HPC)
# [3] = dose: 50.0 mg/kg/injection, schedule: Q04DX003 (ip), vehicle: saline with Tween-80
# [4] = dose: 100.0 mg/kg/injection, schedule: Q01DX009 (ip), vehicle: saline
# [5] = dose: 100.0 mg/kg/injection, schedule: Q04DX003 (ip), vehicle: saline with Tween-80
# [6] = dose: 200.0 mg/kg/injection, schedule: Q01DX009 (ip), vehicle: saline
# [7] = dose: 200.0 mg/kg/injection, schedule: Q04DX003 (ip), vehicle: saline with Tween-80
# [8] = dose: 400.0 mg/kg/injection, schedule: Q01DX009 (ip), vehicle: saline
# [9] = dose: 50.0 mg/kg/injection, schedule: Q01DX009 (ip), vehicle: Klucel (hydroxypropylcellulose) (HPC)
# [10] = dose: 100.0 mg/kg/injection, schedule: Q04DX003 (ip), vehicle: Klucel (hydroxypropylcellulose) (HPC)
# [11] = dose: 200.0 mg/kg/injection, schedule: Q04DX003 (ip), vehicle: Klucel (hydroxypropylcellulose) (HPC)
# [12] = dose: 100.0 mg/kg/injection, schedule: Q04DX002 (ip), vehicle: Klucel (hydroxypropylcellulose) (HPC)
# [13] = dose: 200.0 mg/kg/injection, schedule: Q04DX002 (ip), vehicle: Klucel (hydroxypropylcellulose) (HPC)
# [14] = dose: 400.0 mg/kg/injection, schedule: Q04DX002 (ip), vehicle: Klucel (hydroxypropylcellulose) (HPC)
# [15] = dose: 100.0 mg/kg/injection, schedule: Q01DX009 (ip), vehicle: saline with Tween-80
# [16] = dose: 200.0 mg/kg/injection, schedule: Q01DX009 (ip), vehicle: saline with Tween-80
# [17] = dose: 100.0 mg/kg/injection, schedule: Q01DX001 (ip), vehicle: saline
# [18] = dose: 200.0 mg/kg/injection, schedule: Q01DX001 (ip), vehicle: saline
# [19] = dose: 400.0 mg/kg/injection, schedule: Q04DX003 (ip), vehicle: Klucel (hydroxypropylcellulose) (HPC)
# [20] = dose: 100.0 mg/kg/injection, schedule: Q04DX003 (ip), vehicle: saline
# [21] = dose: 200.0 mg/kg/injection, schedule: Q04DX003 (ip), vehicle: saline
# [22] = dose: 400.0 mg/kg/injection, schedule: Q04DX003 (ip), vehicle: saline
smiles,measurement,setting,value
O=C(Nc1ccc(C(Cl)(Cl)Cl)cc1)Nc1cc(Cl)ccc1Cl,T/C,"dose: 25.0 mg/kg/injection, schedule: Q01DX009 (ip), vehicle: other",109 % of control
same,T/C,"dose: 50.0 mg/kg/injection, schedule: Q01DX009 (ip), vehicle: other",93 % of control
same,T/C,[1],93 % of control
same,T/C,"dose: 100.0 mg/kg/injection, schedule: Q01DX009 (ip), vehicle: other",95 % of control
N=c1ncn(Cc2ccccc2)c2nc[nH]c12,T/C,[1],91 % of control
same,T/C,[2],101 % of control
C#CC1(OCC2CO2)CCCCC1 (stereo not drawn),T/C,"dose: 50.0 mg/kg/injection, schedule: Q01DX009 (ip), vehicle: saline",97 % of control
same,T/C,[3],100 % of control
same,T/C,[4],117 % of control
same,T/C,[5],101 % of control
same,T/C,[6],101 % of control
same,T/C,[7],103 % of control
same,T/C,[8],94 % of control
same,T/C,"dose: 400.0 mg/kg/injection, schedule: Q04DX003 (ip), vehicle: saline with Tween-80",100 % of control
N=C(N)S/C=C/C(=O)O,T/C,"dose: 25.0 mg/kg/injection, schedule: Q04DX002 (ip), vehicle: saline with Tween-80",96 % of control
same,T/C,"dose: 50.0 mg/kg/injection, schedule: Q04DX002 (ip), vehicle: saline with Tween-80",96 % of control
same,T/C,"dose: 100.0 mg/kg/injection, schedule: Q04DX002 (ip), vehicle: saline with Tween-80",96 % of control and 98 % of control
Cc1cc([N+](=O)[O-])cc([N+](=O)[O-])c1Cl,T/C,[9],103 % of control
same,T/C,[1],100 % of control
same,T/C,[10],98 % of control
same,T/C,[11],103 % of control
O=C(Nc1cccc2ccccc12)C(Cl)Cl,T/C,[12],100 % of control
same,T/C,[13],93 % of control
same,T/C,[14],93 % of control
C(=NCCN=Cc1c[nH]c2ccccc12)c1c[nH]c2ccccc12,T/C,[15],100 % of control
same,T/C,[5],89 % of control
same,T/C,[16],102 % of control
same,T/C,[7],96 % of control
Oc1ccccc1N=Cc1ccc(C=Nc2ccccc2O)cc1,T/C,"dose: 100.0 mg/kg/injection, schedule: Q01DX009 (ip), vehicle: gum acacia",101 % of control
same,T/C,"dose: 100.0 mg/kg/injection, schedule: Q04DX003 (ip), vehicle: gum acacia",100 % of control
same,T/C,"dose: 200.0 mg/kg/injection, schedule: Q01DX009 (ip), vehicle: gum acacia",97 % of control
same,T/C,"dose: 200.0 mg/kg/injection, schedule: Q04DX003 (ip), vehicle: gum acacia",98 % of control
same,T/C,"dose: 400.0 mg/kg/injection, schedule: Q01DX009 (ip), vehicle: gum acacia",107 % of control
same,T/C,"dose: 400.0 mg/kg/injection, schedule: Q04DX003 (ip), vehicle: gum acacia",94 % of control
O=C(CC(=O)c1ccc(Cl)cc1)NC(=O)c1ccccc1,T/C,"dose: 100.0 mg/kg/injection, schedule: Q01DX001 (ip), vehicle: other",96 % of control
same,T/C,"dose: 200.0 mg/kg/injection, schedule: Q01DX001 (ip), vehicle: other",91 % of control
same,T/C,"dose: 400.0 mg/kg/injection, schedule: Q01DX001 (ip), vehicle: other",89 % of control
COC(=O)C1CC(OC(C)=O)C(C(N)=O)C1 (stereo not drawn),T/C,[4],101 % of control
same,T/C,[6],111 % of control
same,T/C,[8],101 % of control
O=C1CC2CCC1C2Cl (stereo not drawn),T/C,[3],86 % of control
same,T/C,"dose: 100.0 mg/kg/injection, schedule: Q01DX001 (ip), vehicle: saline with Tween-80",97 % of control
same,T/C,"dose: 200.0 mg/kg/injection, schedule: Q01DX001 (ip), vehicle: saline with Tween-80",89 % of control
CCCCCCCCCC(=O)c1nc(N)nc(N)n1,T/C,"dose: 50.0 mg/kg/injection, schedule: Q01DX009 (ip), vehicle: saline with Tween-80",105 % of control
same,T/C,[15],105 % of control
same,T/C,[16],97 % of control
O=CN/N=C\c1cccc2ccccc12,T/C,"dose: 75.0 mg/kg/injection, schedule: Q01DX001 (ip), vehicle: saline",103 % of control
same,T/C,"dose: 150.0 mg/kg/injection, schedule: Q01DX001 (ip), vehicle: saline",98 % of control
same,T/C,"dose: 300.0 mg/kg/injection, schedule: Q01DX001 (ip), vehicle: saline",97 % of control
O=[N+]([O-])c1cccc(N(CCO)CCO)c1,T/C,"dose: 50.0 mg/kg/injection, schedule: Q01DX001 (ip), vehicle: saline",96 % of control
same,T/C,[17],106 % of control
same,T/C,[18],93 % of control
same,T/C,"dose: 400.0 mg/kg/injection, schedule: Q01DX001 (ip), vehicle: saline",100 % of control
O=C(CSc1ccc(Cl)cc1)Nc1ccccc1,T/C,"dose: 100.0 mg/kg/injection, schedule: Q04DX002 (ip), vehicle: gum acacia",92 % of control
same,T/C,"dose: 200.0 mg/kg/injection, schedule: Q04DX002 (ip), vehicle: gum acacia",87 % of control
same,T/C,"dose: 400.0 mg/kg/injection, schedule: Q04DX002 (ip), vehicle: gum acacia",89 % of control
CSc1nc(N)nc2c1ncn2C1OC(CO)C(O)C1O (stereo not drawn),T/C,"dose: 63.0 mg/kg/injection, schedule: Q01DX009 (ip), vehicle: saline",98 % of control
same,T/C,[17],105 % of control
same,T/C,"dose: 108.0 mg/kg/injection, schedule: Q01DX009 (ip), vehicle: saline",98 % of control
same,T/C,"dose: 178.0 mg/kg/injection, schedule: Q01DX001 (ip), vehicle: saline",110 % of control
same,T/C,"dose: 180.0 mg/kg/injection, schedule: Q01DX009 (ip), vehicle: saline",118 % of control
same,T/C,[18],112 % of control
same,T/C,"dose: 267.0 mg/kg/injection, schedule: Q01DX001 (ip), vehicle: saline",121 % of control
COc1ccc(NC(=O)Nc2cccc(C(=O)O)c2)c(OC)c1,T/C,[12],101 % of control
same,T/C,[13],104 % of control
same,T/C,[14],97 % of control
O=S(=O)(c1ccccc1)N1CC2C3C=CC(C3)C2C1 (stereo not drawn),T/C,[10],93 % of control
same,T/C,[11],109 % of control
same,T/C,[19],95 % of control
CCC(Cc1ccccc1Br)C1=NC(C)(C)CO1 (stereo not drawn),T/C,[4],90 % of control
same,T/C,[20],105 % of control
same,T/C,[6],90 % of control
same,T/C,[21],107 % of control
same,T/C,[8],106 % of control
same,T/C,[22],100 % of control
CC(C)(Cl)CNC(=O)c1ccc([N+](=O)[O-])cc1,T/C,[1],92 % of control
same,T/C,[10],107 % of control
same,T/C,[2],96 % of control
same,T/C,[11],94 % of control
same,T/C,"dose: 400.0 mg/kg/injection, schedule: Q01DX009 (ip), vehicle: Klucel (hydroxypropylcellulose) (HPC)",91 % of control
same,T/C,[19],92 % of control
O=C(O)CCC(=O)c1ccc(Br)cc1,T/C,[9],100 % of control
same,T/C,[1],95 % of control
same,T/C,[2],101 % of control
CC(=N\N=C(N)N)/C(N=Nc1ccc(S(N)(=O)=O)cc1)=N\N=C(N)N,T/C,"dose: 15.0 mg/kg/injection, schedule: Q01DX Z (ip), vehicle: carboxymethylcellulose (CMC)",105 % of control
same,T/C,"dose: 30.0 mg/kg/injection, schedule: Q01DX Z (oral), vehicle: carboxymethylcellulose (CMC)",96 % of control and 102 % of control
same,T/C,"dose: 60.0 mg/kg/injection, schedule: Q01DX Z (ip), vehicle: carboxymethylcellulose (CMC)",160 % of control and 168 % of control and 184 % of control
same,T/C,"dose: 60.0 mg/kg/injection, schedule: Q01DX Z (oral), vehicle: carboxymethylcellulose (CMC)",109 % of control and 120 % of control
same,T/C,"dose: 120.0 mg/kg/injection, schedule: Q01DX Z (oral), vehicle: carboxymethylcellulose (CMC)",113 % of control
CC(=O)Nc1nc(-c2ccccc2)c(CCC=O)c(=O)[nH]1,T/C,"dose: 50.0 mg/kg/injection, schedule: Q01DX001 (ip), vehicle: Klucel (hydroxypropylcellulose) (HPC)",93 % of control
same,T/C,"dose: 100.0 mg/kg/injection, schedule: Q01DX001 (ip), vehicle: Klucel (hydroxypropylcellulose) (HPC)",96 % of control
same,T/C,"dose: 200.0 mg/kg/injection, schedule: Q01DX001 (ip), vehicle: Klucel (hydroxypropylcellulose) (HPC)",104 % of control
O=C(NCCCl)N1C(=O)NC(=O)C1(c1ccccc1)c1ccccc1,T/C,[15],96 % of control
same,T/C,[20],88 % of control
same,T/C,[16],98 % of control
same,T/C,[21],91 % of control
same,T/C,"dose: 400.0 mg/kg/injection, schedule: Q01DX009 (ip), vehicle: saline with Tween-80",96 % of control
same,T/C,[22],98 % of control
